Data as given in US20240208912A1 (Mirati Therapeutics, Inc., priority 2021, published 2024).
Where two headings read alike, the source gives them in different places.

Assays:
[1] = system: PRMT5-dependent Symmetric Di-methyl Arginine signal in HCT116 parental cells; assay: SYM11 In-Cell Western in HCT116 parental cells; type: cell-based; details: read-out: In-cell-Western (SYM11) IC50 (nM) HCT216 parental
Protocol: (§1) Control samples were analyzed in parallel.
Briefly, on Day 0, 2,000 HCT116 parental or HCT116 homozygous MTAP knockout cells were seeded in 96 well plates in McCoy's 5A supplemented with 10% fetal bovine serum and pen/strep and the cells were incubated overnight at 37° C. plus 5% CO2. The following day, cells were treated with DMSO vehicle control or a dose response of PRMT5 inhibitors, and incubated at 37° C. plus 5% CO^2 for four days.
After 4 days of treatment, the cells were fixed by adding 50 μl of 4% paraformaldehyde solution to each well and the cells were incubated for 20 min at room temperature. The paraformaldehyde solution was removed, 150 μl of ice-cold methanol was added and the plate was placed −20° C. for 10 minutes. The methanol was removed, 150 μl of Odyssey Blocking buffer+0.05% Tween20 was added and the plate was incubated at room temperature with shaking for one hour.
The primary SYM11 antibody solution was removed by aspiration and the wells were washed three consecutive times with phosphate buffered saline containing 0.1% Tween-20 (PBST).
The secondary antibody solution was removed by aspiration and the wells were washed three consecutive times with PBST.
The SYM11 signal and the DRAQ5 signal were quantified using a Li-Cor Odyssey machine reading at […], respectively. The SYM11/DRAQ5 ratio was used to calculate the inhibition of Symmetric Dimethyl Arginine as percent of DMSO control.

[2] = biological target: T1, PRMT5/MEP50 complex (Homo sapiens, UniProt O14744); assay: PRMT5:MEP50 HotSpot Assay (full-length histone H2A substrate, plus and minus MTA); type: biochemical; details: IC50 + 2 μM MTA, in the presence of 2 μM MTA
T1 construct: purchased Reaction Biology Corporation
In short: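 Radiometric HotSpot format using recombinant full-length histone H2A as substrate, run with and without MTA. Reactions were stopped and spotted onto filter paper. Tritiated H2A was quantified by scintillation counting.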

[3] = system: HCT116 parental cells; assay: Proliferation assay (CellTiter-Glo, 10 days) in HCT116 parental cells; type: cell-based; details: CellTiter-Glo after 10 days of treatment
Protocol: as §1
Briefly, on Day 0, 250 HCT116 parental or HCT116 homozygous MTAP knockout cell were seeded in 96 well plates in McCoy's 5A supplemented with […] fetal bovine serum and pen/strep and the cells were incubated overnight at 37° C. plus 5% CO2.
The following day, cells were treated with DMSO vehicle control or a dose response of PRMT5 inhibitors and incubated at 37 C plus 5% CO2 for five days. On Day 6, the cells were trypsinized and split 1:10 into new 96-well plates with fresh medium containing the same concentration of PRMT5 inhibitor and incubated for an additional 5 days at 37° C. plus 5% CO^2.
On Day 11, the viability of the cells was measured using a CTG assay kit (CellTiter-Glo; Promega cat.no G7573) in accordance with the manufacturer's instructions. The IC50 values for each compound after 10 days of treatment were calculated using GraphPad PRISM software.

[4] = system: HCT116 homozygous MTAP knockout cells; assay: Proliferation assay (CellTiter-Glo, 10 days) in HCT116 homozygous MTAP knockout cells; type: cell-based; details: CellTiter-Glo after 10 days of treatment, read-out: Proliferation IC50 (nM) HCT116 MTAP_KO
In short: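 MTAP-null HCT116 clone made by CRISPR/Cas9 knockout of both alleles, tested beside parental cells. Cells dosed the day after seeding, split 1:10 on day 6 into fresh medium with the same compound level, and read on day 11 by CellTiter-Glo. IC50 taken after 10 days of exposure.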

[5] = system: PRMT5-dependent Symmetric Di-methyl Arginine signal in HCT116 homozygous MTAP Knockout cells; assay: SYM11 In-Cell Western in HCT116 homozygous MTAP knockout cells; type: cell-based
In short: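 HCT116 cells with CRISPR homozygous MTAP knockout, alongside parental cells, treated four days with PRMT5 inhibitor dose response at 37° C., 5% CO2 in McCoy's 5A with 10% FBS.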

[6] = HCT116 parental cells, 4 days of treatment, SYM11/DRAQ5 ratio as percent of DMSO control
[7] = Homo sapiens, HCT-116, 96 h, HCT116 parental cells, 4 days of treatment, SYM11/DRAQ5 ratio as percent of DMSO control
[8] = Homo sapiens, HCT-116, 96 h, 4 days of treatment, SYM11/DRAQ5 ratio as percent of DMSO control, read-out: In-cell-Western (SYM11) IC50 (nM) HCT116 MTAP_KO
[9] = 4 days of treatment, SYM11/DRAQ5 ratio as percent of DMSO control, read-out: In-cell-Western (SYM11) IC50 (nM) HCT116 MTAP_KO

T1 sequence (O14744 2-637 limits assumed): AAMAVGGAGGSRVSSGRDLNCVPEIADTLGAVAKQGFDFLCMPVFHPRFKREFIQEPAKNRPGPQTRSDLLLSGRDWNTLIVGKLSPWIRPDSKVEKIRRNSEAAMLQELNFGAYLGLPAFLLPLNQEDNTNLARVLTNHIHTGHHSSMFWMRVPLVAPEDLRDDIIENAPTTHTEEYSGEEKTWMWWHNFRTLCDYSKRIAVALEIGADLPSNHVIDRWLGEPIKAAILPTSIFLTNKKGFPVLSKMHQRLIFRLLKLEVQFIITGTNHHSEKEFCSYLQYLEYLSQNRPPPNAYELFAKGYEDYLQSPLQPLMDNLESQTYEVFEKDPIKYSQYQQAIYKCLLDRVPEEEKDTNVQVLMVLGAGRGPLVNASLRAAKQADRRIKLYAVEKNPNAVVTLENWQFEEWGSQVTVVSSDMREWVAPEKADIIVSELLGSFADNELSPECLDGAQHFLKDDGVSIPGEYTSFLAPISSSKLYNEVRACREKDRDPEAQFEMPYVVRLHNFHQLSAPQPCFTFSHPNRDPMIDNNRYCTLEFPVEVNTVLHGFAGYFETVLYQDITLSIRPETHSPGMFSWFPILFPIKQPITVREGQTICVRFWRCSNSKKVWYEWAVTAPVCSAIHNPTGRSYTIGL
T1 sequence (Q9BQA1 2-342 partner limits assumed): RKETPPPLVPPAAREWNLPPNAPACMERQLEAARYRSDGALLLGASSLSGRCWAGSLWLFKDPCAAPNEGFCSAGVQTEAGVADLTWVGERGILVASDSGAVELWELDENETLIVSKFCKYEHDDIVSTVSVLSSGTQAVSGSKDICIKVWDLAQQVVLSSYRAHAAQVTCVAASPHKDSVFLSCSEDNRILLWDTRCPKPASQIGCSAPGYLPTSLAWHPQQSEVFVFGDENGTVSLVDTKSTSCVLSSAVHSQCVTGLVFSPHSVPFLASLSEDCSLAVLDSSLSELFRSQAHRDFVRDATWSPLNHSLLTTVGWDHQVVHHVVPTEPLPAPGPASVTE

| Compound | IC50 [2] | IC50 ([4]; Homo sapiens, HCT-116, 240 h) | IC50 [1, 7] | IC50 [5, 8] | other results |
| --- | --- | --- | --- | --- | --- |
| Cn1ncc(-c2ccc3c(=O)[nH]nc(CN)c3c2)c1-c1c(F)cc2ccccc2c1C#N (single isomer, unassigned) [Example 16-1] | 0.038 µM |  |  |  | IC50 [1, 6]: 316 nM; IC50 [3]: 757 nM |
| COCc1nc2sc(-c3c(-c4ccc5c(=O)[nH]nc(CN)c5c4)cnn3C)c(C#N)c2cc1Cl [Example 4-272, 2-(4-(4-(aminomethyl)-1-oxo-1,2-dihydrophthalazin-6-yl)-1-methyl-1H-pyrazol-5-yl)-5-chloro-6-(methoxymethyl)thieno[2,3-b]pyridine-3-carbonitrile] | 0.26 µM | 245 nM | > 1000 nM | 55 nM | IC50 ([3]; Homo sapiens, HCT-116, 240 h): > 10000 nM |
| Cn1ncc(-c2cc(C(F)F)c3c(=O)[nH]nc(CN)c3c2)c1-c1sc2ccccc2c1C#N [Example 10-21, 2-[4-[4-(aminomethyl)-8-(difluoromethyl)-1-oxo-2H-phthalazin-6-yl]-2-methyl-pyrazol-3-yl]benzothiophene-3-carbonitrile] | 0.00409 µM | 35 nM | > 1000 nM | 35 nM |  |
| Cn1ncc(-c2ccc3c(=O)[nH]nc(CN)c3c2)c1-c1c(F)ccc(OC2CC2)c1C#N (single isomer, unassigned) [Example 16-22, (M)-2-[4-[4-(aminomethyl)-1-oxo-2H-phthalazin-6-yl]-2-methyl-pyrazol-3-yl]-6-(cyclopropoxy)-3-fluoro-benzonitrile] | 0.107 µM |  |  |  | IC50 [4]: 17 nM; IC50 [1, 6]: 1060 nM; IC50 [5, 9]: 4 nM; IC50 [3]: 3620 nM |
| CCOc1cc(-c2cnn(C)c2-c2c(F)c(C)c3cc(Cl)cnc3c2C#N)cc2c(CN)n[nH]c(=O)c12 (single isomer, unassigned) [Example 16-100, (M)-7-(4-(4-(aminomethyl)-8-ethoxy-1-oxo-1,2-dihydrophthalazin-6-yl)-1-methyl-1H-pyrazol-5-yl)-3-chloro-6-fluoro-5-methylquinoline-8-carbonitrile] | 1.06 µM |  |  |  | IC50 ([3]; Homo sapiens, HCT-116, 240 h): > 10000 nM |
| Cn1ncc(-c2cc([C@H]3CCCO3)c3c(=O)[nH]nc(CN)c3c2)c1-c1sc2ccccc2c1C#N [Example 15-4, (R)-2-(4-(4-(aminomethyl)-1-oxo-8-(THF-2-yl)-1,2-dihydrophthalazin-6-yl)-1-methyl-1H-pyrazol-5-yl)benzo[b]thiophene-3-carbonitrile] | 0.261 µM | 1110 nM | 551 nM | 551 nM |  |
| Cn1ncc(-c2cc([C@@H]3CCCO3)c3c(=O)[nH]nc(CN)c3c2)c1-c1sc2ccccc2c1C#N [Example 15-3, (S)-2-(4-(4-(aminomethyl)-1-oxo-8-(THF-2-yl)-1,2-dihydrophthalazin-6-yl)-1-methyl-1H-pyrazol-5-yl)benzo[b]thiophene-3-carbonitrile] | 0.0163 µM | 22 nM | 330 nM | 6 nM |  |
| Cn1ncc(-c2ccc3c(=O)[nH]nc(CN)c3c2)c1-c1c(F)ccc(OC2CC2)c1C#N (single isomer, unassigned) [Example 16-21, (P)-2-[4-[4-(aminomethyl)-1-oxo-2H-phthalazin-6-yl]-2-methyl-pyrazol-3-yl]-6-(cyclopropoxy)-3-fluoro-benzonitrile] | 0.462 µM |  |  |  | IC50 [4]: 112 nM; IC50 [1, 6]: 4480 nM; IC50 [5, 9]: 65 nM; IC50 ([3]; Homo sapiens, HCT-116, 240 h): 4210 nM |
| Cn1ncc(-c2ccc3c(=O)[nH]nc(CN)c3c2)c1-c1c(F)c(Cl)cc(OC2CC2)c1C#N [Example 4-230, 2-(4-(4-(aminomethyl)-1-oxo-1,2-dihydrophthalazin-6-yl)-1-methyl-1H-pyrazol-5-yl)-4-chloro-6-cyclopropoxy-3-fluorobenzonitrile] |  |  |  |  | IC50 ([1]; Homo sapiens, HCT-116, 96 h): > 1000 nM; IC50 ([5]; read-out: In-cell-Western (SYM11) IC50 (nM) HCT116 MTAP_KO, 4 days of treatment, SYM11/DRAQ5 ratio as percent of DMSO control): 6 nM |
| N#Cc1c(OC2CC2)cc(Cl)c(F)c1-c1c(-c2ccc3c(=O)[nH]nc(CN)c3c2)cnn1C(F)F (atropisomer, axis not shown; (M)) [Example 16-106, (M)-2-(4-(4-(aminomethyl)-1-oxo-1,2-dihydrophthalazin-6-yl)-1-(difluoromethyl)-1H-pyrazol-5-yl)-4-chloro-6-cyclopropoxy-3-fluorobenzonitrile] |  | 11 nM |  |  | IC50 ([3]; Homo sapiens, HCT-116, 240 h): 1950 nM |
| COCc1cc(-c2cnn(C)c2-c2sc3ccccc3c2C#N)cc2c(CN)n[nH]c(=O)c12 [Example 15-5, 2-[4-[4-(aminomethyl)-8-(methoxymethyl)-1-oxo-2H-phthalazin-6-yl]-2-methyl-pyrazol-3-yl]benzothiophene-3-carbonitrile] |  | 23 nM | 595 nM | 5 nM |  |
| Cc1cc(-c2cnn(C)c2-c2sc3ccccc3c2C#N)cc2c(CN)n[nH]c(=O)c12 [Example 10-23, 2-[4-[4-(aminomethyl)-8-methyl-1-oxo-2H-phthalazin-6-yl]-2-methyl-pyrazol-3-yl]benzo-thiophene-3-carbonitrile] | 0.126 µM | 30 nM | > 1000 nM | 15 nM |  |
| Cc1cc(-c2cnn(C)c2-c2c(C#N)cc3ccccc3c2Cl)cc2c(CN)n[nH]c(=O)c12 (single isomer, unassigned) [Example 16-52, (M)-3-[4-[4-(aminomethyl)-8-methyl-1-oxo-2H-phthalazin-6-yl]-2-methyl-pyrazol-3-yl]-4-chloro-naphthalene-2-carbonitrile] | 0.0291 µM |  |  |  | IC50 [4]: 19 nM; IC50 [5, 9]: 13 nM |
| Cn1ncc(-c2cc(Cl)c3c(=O)[nH]nc(CN)c3c2)c1-c1sc2ccccc2c1C#N [Example 10-22, 2-(4-(4-(aminomethyl)-8-chloro-1-oxo-1,2-dihydrophthalazin-6-yl)-1-methyl-1H-pyrazol-5-yl)benzo[b]thiophene-3-carbonitrile] | 0.0868 µM | 52 nM |  | 17 nM |  |
| Cc1cc(-c2cnn(C)c2-c2c(F)c(Cl)cc(OC3CC3)c2C#N)cc2c(CN)n[nH]c(=O)c12 (single isomer, unassigned) [Example 16-46, (M)-2-[4-[4-(aminomethyl)-8-methyl-1-oxo-2H-phthalazin-6-yl]-2-methyl-pyrazol-3-yl]-4-chloro-6-(cyclopropoxy)-3-fluoro-benzonitrile] | 0.0419 µM |  |  |  | IC50 [4]: 7 nM; IC50 [5, 9]: 6 nM |
| Cn1ncc(-c2ccc3c(=O)[nH]nc(CN)c3c2)c1-c1c(C#N)cc2ccccc2c1Cl (single isomer, unassigned) [Example 16-6] | 0.028 µM |  |  |  | IC50 [4]: 64 nM; IC50 [5, 9]: 20 nM |
| CCn1cccc(-c2c(-c3ccc4c(=O)[nH]nc(CN)c4c3)cnn2C)c1=O [Example 4-255, 4-(aminomethyl)-6-(5-(1-ethy1-2-oxo-1,2-dihydropyridin-3-yl)-1-methyl-1H-pyrazol-4-yl)phthalazin-1(2H)-one] | 9.62 µM | 1630 nM |  | 955 nM |  |
